Reference: ChEMBL document CHEMBL3734674, “Design, Synthesis, and Evaluation of Orally Available Clioquinol-Moracin M Hybrids as Multitarget-Directed Ligands for Cognitive Improvement in a Rat Model of Neurodegeneration in Alzheimer's Disease” (J Med Chem, 2015)

How the values were obtained:
[1] = Metabolic stability in rat liver microsomes after 5 to 180 mins by HPLC-UV analysis; assay type: ADME
[2] = Half life in rat liver microsomes at 100 uM after 5 to 180 mins by HPLC-UV analysis; assay type: ADME

Row | SMILES | k el [1] | half-life at 100 µM [2]
1 | Oc1c(I)cc(Cl)c2cccnc12 [CLIOQUINOL] | 0.000331 s⁻¹ | 34.8 min
2 | COc1cc2c(cc1OC)C(=O)C(CC1CCN(Cc3ccccc3)CC1)C2 (stereo unspecified) [DONEPEZIL] | 0.000149 s⁻¹ | 73.3 min
3 | C[C@]12CC[C@H]3[C@@H](CCC4=CC(=O)CC[C@@]43C)[C@@H]1CC[C@@H]2O [TESTOSTERONE] | 0.00525 s⁻¹ | 2.1 min
